Results reported in US10301256B2, “Sulfonamide and sulfinamide prodrugs of fumarates and their use in treating various diseases” (Alkermes Pharma Ireland Limited, priority 2014, dated 2019).
Structures can show the parent of a compound that is named as a salt.

Legend:
[1] = Physical stability in crystalline form by thermogravimetric analysis (TGA); assay type: physicochemical; details: 55° C.; for weight loss vs time (TGA): crystalline form
Experimental: The physical stability of compounds of the present invention and dimethyl fumarate (DMF) were measured via thermogravimetric analysis (TGA).

[2] = Chemical stability of MMF prodrugs in pH 8 phosphate buffer; assay type: physicochemical; details: 50 mM buffer phosphate pH 8, 37° C., HPLC-UV, first-order decay
Experimental: Stock solutions of the compounds in acetonitrile or acetonitrile/MeOH were prepared at 0.05M. A 0.010 mL aliquot of the stock was spiked into 1 mL of 50 mM buffer phosphate pH 8 and incubated at 37° C. Typically, aliquots (0.010 mL) were sampled at different time points and immediately injected in the HPLC with UV detection (211 nm). The peak areas corresponding to the compounds were plotted against time and the data were fitted to a first-order mono-exponential decay where the rate constant and the half-life were determined from the slope (Table 2).

| weight loss (TGA) ([1]; in less than 2 hours) [%] | weight loss vs time (TGA) [1] | pH 8 (t½, min) [2] [min] | Structure (SMILES) |
| --- | --- | --- | --- |
| ~100 |  |  | COC(=O)/C=C/C(=O)OC [DMF, dimethyl fumarate, reference compound] |
|  | no change | 143.5 | COC(=O)/C=C/C(=O)OCCNS(C)(=O)=O [Compound 2, Methyl (2-(methylsulfonamido)ethyl) fumarate] |
|  | no change | 187 | COC(=O)/C=C/C(=O)OCCN(C)S(C)(=O)=O [Compound 1, Methyl (2-(N-methylmethylsulfonamido)ethyl) fumarate] |
|  |  | 202 | COC(=O)/C=C/C(=O)OCCN1CCCS1(=O)=O [Compound 6, 2-(1,1-Dioxidoisothiazolidin-2-yl)ethyl methyl fumarate] |
